Results as given in publication PMC4467816 (EJNMMI Research, 2015).

What was measured:
[1] = HPLC-based logD analysis (ODP-50 column); format: physicochemical; settings: for chromatographic logD: HPLC on polymeric ODP-50 column, methanol/phosphate buffer, pH 7.4, HPLC method
Method: LogD values were assessed using a HPLC-based protocol according to Donovan and Pescatore. All compounds (as cold reference standards) were injected together with two known compounds—with known logD and k′ values—according to a standard protocol. A polymeric ODP-50 column was used; a linear gradient from 10 % MeOH 90 % 25 mM phosphate buffer (pH 7.4) to 100 % methanol within 9.4 min at a flow-rate of 1.5 mL/min was applied. Internal standards were triphenylene and toluene; detection was performed at 260 and 285 nm.

human NET membranes = molecular target: T1, human NET membranes (Homo sapiens, UniProt P23975); experiment: NET-expressing membrane competitive binding ([3H]nisoxetine); settings: n ≥ 9 triplicates; cold reference compounds; read-out: Kd (affinity, human NET membranes)
T1 construct: purchased Perkin Elmer RBHNETM400AU
Method: The affinity of new radiolabelled ligand was determined in a NET-expressing membrane binding protocol [26, 27].
Data from the competition plots (as arithmetic means of values derived from three different assays, each in triplicate for each compound) were analyzed and subsequently IC50 and Ki values were calculated using GraphPad Prism® software (San Diego, USA).
The affinity of new radiolabeled ligand was determined in a NET-expressing membrane binding protocol [3-5]. […] After incubation time, binding was quenched with ice cold buffer, and membrane bound radioactivity was recovered by rapid vacuum filtration through GF/C glass fiber filters (Whatman® Inc., Clifton, USA) presoaked in assay buffer containing 0.3% polyethylene imine (PEI). […] After addition of a β-scintillation cocktail (2 mL Ultima Gold^TM, biodegradeable, Perkin Elmer), the tubes were shaken for 20 min and then counted. Data from the competition plots (as arithmetic means of values derived from three different assays, each in triplicate for each compound) were analyzed and subsequently IC50 and Ki values were calculated using GraphPad Prism® software (San Diego, USA).

human DAT membranes = molecular target: T2, human DAT membranes (Homo sapiens, UniProt Q01959); experiment: DAT-expressing membrane binding (selectivity); settings: n ≥ 5 triplicates, read-out: affinity for DAT
T2 construct: purchased Perkin Elmer RBHDATM400UA
Method: (§1) IC50 and Ki values were obtained in analogy to NET experiments. Ratios DAT/NET and SERT/NET were determined.
as §1

human SERT membranes = molecular target: T3, human SERT membranes (Homo sapiens, UniProt P31645); experiment: SERT-expressing membrane binding (selectivity); settings: n ≥ 5 triplicates, read-out: affinity towards SERT
T3 construct: purchased Perkin Elmer RBHSTM400UA
Method: as §1, §1

NET [2] = molecular target: T4, NET (Homo sapiens, UniProt P23975); experiment: In vitro autoradiography with [11C]Me@HAPTHI, human brain slices, competition; format: binding; settings: human nucleus caudatus
T4 construct: The human postmortem tissue (7–9 h postmortem time, no history of neurological diseases) was obtained from the Neurobiobank; from tissue; host or cells: post-mortem human brain (cortex, thalamus, hippocampus, cerebellum, hypothalamus, nucleus caudatus), 10 µm cryo-slices

NET [3] = molecular target: T4, NET; experiment: as above; format: binding
Method: Human brain tissue (cortex, thalamus, hippocampus, cerebellum and hypothalamus) was obtained deeply frozen from the Neurobiobank of the Medical University Vienna and was stored at −80 °C. Before cutting, tissue blocks were thawed slowly within 12 h to −20 °C. The organs were cut at −20 °C in a micro-cryotome into 10-μm-thick slices and thaw mounted onto object slides. Slices were again stored at −80 °C until the beginning of the experiment.
(§2) In vitro autoradiography was performed with slight modifications according to previously published protocols. Non-specific binding was determined by co-incubation with excess Nisoxetine (10 μM). […] After 1 h at room temperature, incubation was stopped and slices were processed on phosphor imaging films.
(§3) All data was exported to Microsoft Excel for statistical analysis, and the percentage of total specific binding was calculated.
Human brain tissue (cortex, thalamus, hippocampus, cerebellum, and hypothalamus) was obtained deeply frozen from the Neuro-Biobank of the Medical University Vienna. Upon cutting, all tissue was stored at -80 °C. Before cutting, tissue blocks were thawed slowly within 12 h to -20 °C. The organs were cut at -20°C in a micro-cryotome into 10 µm thick slices and thaw mounted onto object slides. Until the beginning of the experiment, slices were stored at -80°C.
(§4) A buffer for pre-incubation (50 mM TRIS HCl in aqua dest., pH 7.4) and a buffer for the experiment (50 mM TRIS HCl, pH 7.4, 300 mM NaCl, 5 mM KCl, 0.1%w/v ascorbic acid in aqua dest.) were prepared the day before the experiment and stored at 4 °C.
(§5) Tissue sections were allowed to thaw to RT upon thorough vanishing of condense water residues (5-10min). Subsequently, the slices were pre-incubated with the respective buffer at RT for 30 min in a Coplin jar. Slices were taken out of the jar and the buffer residues were removed.
(§6) Non-specific binding was determined by co-incubation with excess Nisoxetine (10 µM). […] To the naïve incubation solution (baseline), a vehicle containing acetonitrile was added in the same concentration as used for the dissolution of the competitors (i.e. 0.3% acetonitrile in the final incubation solution).
(§7) After 1 h the incubation was stopped and the slices were washed twice for 5 min in a jar with ice-cold incubation buffer. Finally, the tissue slides were washed with ice-cold water to remove all residual salts and dried under a smooth air stream. Subsequently, the dry tissue slices were placed on Phosphor-Imager films in a lead shielded cassette for an exposure time of 12 h. Following the analysis of the films with a Cyclone Phosphor Imager, regions of interest (ROI) were analyzed using OptiQuant® software. The signal obtained (digital light units/mm2=DLU/mm^2) was proportional to the radioactivity on the film. Using a calibration curve for each experiment, DLUs were converted into kBq/mm^2. Furthermore, for calculation of NET-density, kBq were converted into fmol by taking into account the specific activity of the radiotracer preparations. All data was exported to Microsoft Excel for statistical analysis and the percentage of total specific binding was calculated.

NET [4] = molecular target: T5, NET (Rattus norvegicus, UniProt Q63380); experiment: In vitro autoradiography with [11C]Me@HAPTHI, rat heart slices, competition; format: binding; settings: for % BL-competitor: [11C]Me@HAPTHI binding, BL = baseline; for fmol (calculated relative concentration of transporter protein): limit of detection 0.01 fmol
T5 construct: Wild-type male rats were deeply anesthesized by isoflurane and sacrificed by decapitation; The organs of interest (i.e. brain, heart and testis) were removed; from tissue; host or cells: rat heart, 10 µm cryo-slices
Method: as §2, §3, §4, §5, §6, §7

[5] = molecular target: T6, hNET expressing membranes (Homo sapiens, UniProt P23975); experiment: Harvesting experiments with [11C]Me@HAPTHI on hNET expressing membranes; format: binding; settings: cold competitor 1-1000 nM, n ≥ 3 triplicates
T6 construct: purchased Perkin Elmer RBHNETM400AU

[6] = Plasma free fraction by ultrafiltration; format: in vitro ADME, human; settings: binding to filter matrix of Centrifree vials, phosphate buffer pH 7.4
Method: For the determination of free fraction in human pooled plasma, an ultrafiltration protocol according to previously published methods was used. […] For a detailed method, see Additional file 1.
After incubation for 20 min at room temperature, the Centrifree vials were centrifuged for 50 minutes at 1800g. Subsequently, an aliquot of 50 µL of the ultrafiltrate was taken and measured in the γ-counter. The plasma free fraction was subsequently calculated as the ratio of the ultrafiltrate activity to the total plasma activity. […] The final free fraction value was corrected for this unspecific filter binding.

[7] = human cortex, competitor 100 nM
[8] = human hippocampus, competitor 100 nM
[9] = human hippocampus, competitor 1 μM
[10] = human hypothalamus, competitor 100 nM
[11] = human hypothalamus, competitor 1 μM
[12] = human thalamus, competitor 100 nM
[13] = human thalamus, competitor 1 μM

T5 sequence (Q63380 1-617): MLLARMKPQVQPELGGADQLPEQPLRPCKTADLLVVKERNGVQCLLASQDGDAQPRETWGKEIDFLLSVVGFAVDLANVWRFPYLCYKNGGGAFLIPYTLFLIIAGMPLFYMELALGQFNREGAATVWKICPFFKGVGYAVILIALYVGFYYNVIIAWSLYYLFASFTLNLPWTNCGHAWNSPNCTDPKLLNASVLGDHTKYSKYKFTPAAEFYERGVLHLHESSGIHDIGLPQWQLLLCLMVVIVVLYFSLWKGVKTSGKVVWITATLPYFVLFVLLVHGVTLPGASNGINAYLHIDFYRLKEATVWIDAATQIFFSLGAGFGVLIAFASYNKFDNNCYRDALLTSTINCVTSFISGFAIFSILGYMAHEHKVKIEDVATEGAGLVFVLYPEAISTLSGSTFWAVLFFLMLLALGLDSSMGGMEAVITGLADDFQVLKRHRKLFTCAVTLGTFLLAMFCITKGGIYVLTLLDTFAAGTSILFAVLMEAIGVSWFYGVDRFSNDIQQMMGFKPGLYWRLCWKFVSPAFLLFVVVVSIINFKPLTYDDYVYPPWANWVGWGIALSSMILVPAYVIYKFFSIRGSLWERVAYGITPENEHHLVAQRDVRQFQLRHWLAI
T4 sequence (P23975 whole entry): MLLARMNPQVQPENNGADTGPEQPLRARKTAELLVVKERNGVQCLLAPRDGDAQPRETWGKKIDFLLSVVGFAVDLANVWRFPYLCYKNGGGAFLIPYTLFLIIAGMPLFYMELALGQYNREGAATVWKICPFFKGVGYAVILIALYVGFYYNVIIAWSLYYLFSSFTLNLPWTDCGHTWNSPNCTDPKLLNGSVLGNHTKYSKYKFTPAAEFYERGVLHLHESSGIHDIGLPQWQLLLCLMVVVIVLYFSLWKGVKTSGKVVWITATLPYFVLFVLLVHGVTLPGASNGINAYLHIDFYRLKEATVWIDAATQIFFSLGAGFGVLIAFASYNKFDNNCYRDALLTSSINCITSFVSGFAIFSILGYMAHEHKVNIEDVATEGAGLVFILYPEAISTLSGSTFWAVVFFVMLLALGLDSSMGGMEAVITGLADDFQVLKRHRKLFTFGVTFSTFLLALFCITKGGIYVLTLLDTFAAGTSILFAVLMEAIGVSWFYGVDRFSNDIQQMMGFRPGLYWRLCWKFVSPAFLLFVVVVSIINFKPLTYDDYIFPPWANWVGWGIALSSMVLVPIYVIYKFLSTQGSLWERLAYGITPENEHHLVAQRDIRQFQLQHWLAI
T3 sequence (P31645 whole entry): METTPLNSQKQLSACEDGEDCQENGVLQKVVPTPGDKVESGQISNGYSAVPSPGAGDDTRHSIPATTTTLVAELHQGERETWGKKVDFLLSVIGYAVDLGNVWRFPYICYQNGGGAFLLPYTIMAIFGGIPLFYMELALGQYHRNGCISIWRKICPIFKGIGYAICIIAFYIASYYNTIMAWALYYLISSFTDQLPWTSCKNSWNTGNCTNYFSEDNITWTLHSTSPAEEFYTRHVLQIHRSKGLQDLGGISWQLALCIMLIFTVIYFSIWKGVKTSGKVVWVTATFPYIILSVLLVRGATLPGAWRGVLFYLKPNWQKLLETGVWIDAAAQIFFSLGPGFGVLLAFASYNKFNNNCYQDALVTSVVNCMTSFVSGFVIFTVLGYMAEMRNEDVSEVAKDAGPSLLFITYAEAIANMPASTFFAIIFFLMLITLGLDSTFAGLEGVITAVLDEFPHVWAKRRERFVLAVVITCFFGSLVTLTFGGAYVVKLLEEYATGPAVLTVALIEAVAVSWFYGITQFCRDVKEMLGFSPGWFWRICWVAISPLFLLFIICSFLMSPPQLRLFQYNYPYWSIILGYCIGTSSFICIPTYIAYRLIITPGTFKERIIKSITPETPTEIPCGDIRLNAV
T2 sequence (Q01959 whole entry): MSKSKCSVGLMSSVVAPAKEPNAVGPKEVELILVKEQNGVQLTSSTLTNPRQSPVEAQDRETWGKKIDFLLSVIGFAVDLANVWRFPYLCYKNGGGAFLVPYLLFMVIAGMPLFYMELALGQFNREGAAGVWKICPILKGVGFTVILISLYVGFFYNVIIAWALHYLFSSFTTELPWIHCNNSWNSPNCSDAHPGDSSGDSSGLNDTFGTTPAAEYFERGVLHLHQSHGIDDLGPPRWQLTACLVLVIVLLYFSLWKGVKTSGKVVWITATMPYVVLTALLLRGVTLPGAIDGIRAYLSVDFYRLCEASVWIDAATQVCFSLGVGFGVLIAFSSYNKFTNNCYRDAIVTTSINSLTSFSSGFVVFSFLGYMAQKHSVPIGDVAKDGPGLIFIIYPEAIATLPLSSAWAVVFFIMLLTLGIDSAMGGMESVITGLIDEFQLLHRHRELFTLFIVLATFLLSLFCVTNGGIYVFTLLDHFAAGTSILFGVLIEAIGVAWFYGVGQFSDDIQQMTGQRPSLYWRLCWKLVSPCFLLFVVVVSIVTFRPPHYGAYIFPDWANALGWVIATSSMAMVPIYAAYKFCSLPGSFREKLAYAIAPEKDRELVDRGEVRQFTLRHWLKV
T1 sequence (P23975 whole entry): as the sequence (P23975 whole entry) above
T6 sequence (P23975 whole entry): as above

In the case of `NC[C@@H](O)CCN1c2ccccc2N(c2ccccc2)S1(=O)=O` [HAPTHI, (S)-1-(4-amino-3-hydroxybutyl)-3-phenyl-1,3-dihydrobenzo[c][1,2, 5]thiadiazole 2,2-dioxide], the chromatographic logD [1] is reported as 2.3 ± 0.01, the Kd (human NET membranes) is reported as 0.0242 ± 0.0109 µM and the Kd (human DAT membranes) is reported as over 10 µM. It also gave a Kd (human SERT membranes) of 10.3 µM.
For `[2H]C([2H])(F)Oc1ccccc1OC(c1ccccc1)C1CNCCO1` (centres unmarked) [FMeNER-D2], the “% BL-competitor” value (NET [2]; competitor 100 nM) was 102.6 ± 14.5%, the “% BL-competitor” value (NET [2]; competitor 1 μM) was 107.6 ± 17.7% and the logD ([1]; HPLC method, phosphate buffer pH 7.4) was 2.73. For the same compound, the “% BL-competitor” value (NET [3]; human cerebellum, competitor 100 nM) was 103.9 ± 12.2%, the “% BL-competitor” value (NET [3]; human cerebellum, competitor 1 μM) was 108.2 ± 17.3% and the “% BL-competitor” value (NET [3]; [7]) was 86.3 ± 11.2 %. For the same compound, the “fmol (calculated relative concentration of transporter protein)” value (NET [3]; [7]) was under 0.01 fmol/mm^2, the “% BL-competitor” value (NET [3]; human cortex, competitor 1 μM) was 71.9 ± 7.9 % and the “fmol (calculated relative concentration of transporter protein)” value (NET [3]; human cortex, competitor 1 μM) was 0.86 fmol/mm^2. For the same compound, the “% BL-competitor” value (NET [3]; [8]) was 97.1 ± 10.3%, the “fmol (calculated relative concentration of transporter protein)” value (NET [3]; [8]) was under 0.01 fmol/mm^2 and the “% BL-competitor” value (NET [3]; [9]) was 67.3 ± 8.2%. For the same compound, the “fmol (calculated relative concentration of transporter protein)” value (NET [3]; [9]) was under 0.01 fmol/mm^2, the “% BL-competitor” value (NET [3]; [10]) was 97.8 ± 14.6% and the “fmol (calculated relative concentration of transporter protein)” value (NET [3]; [10]) was 0.11 fmol/mm^2. For the same compound, the “% BL-competitor” value (NET [3]; [11]) was 77.4 ± 14.5%, the “fmol (calculated relative concentration of transporter protein)” value (NET [3]; [11]) was 0.02 fmol/mm^2 and the “% BL-competitor” value (NET [3]; [12]) was 77.6 ± 9.8%. The “fmol (calculated relative concentration of transporter protein)” value (NET [3]; [12]) was 0.47 fmol/mm^2, the “% BL-competitor” value (NET [3]; [13]) was 68.36 ± 2.11% and the “fmol (calculated relative concentration of transporter protein)” value (NET [3]; [13]) was 0.71 fmol/mm^2. For the same compound, the “% BL-competitor” value (NET [4]; competitor 100 nM) was 99.00 ± 0.07%, the “fmol (calculated relative concentration of transporter protein)” value (NET [4]; competitor 100 nM) was under 0.01 fmol/mm^2 and the “% BL-competitor” value (NET [4]; competitor 1 μM) was 88.8 ± 11.2%. The “fmol (calculated relative concentration of transporter protein)” value (NET [4]; competitor 1 μM) was under 0.01 fmol/mm^2 and the “displacement of [11C]Me@HAPTHI” value [5] was “concentration-dependent displacement”.
In the case of `CNC[C@@H](O)CCN1c2ccccc2N(c2ccccc2)S1(=O)=O` [Me@HAPTHI, (S)-1-(3-hydroxy-4-(methylamino)butyl)-3-phenyl-1,3-dihydrobenzo[c][1,2, 5]thiadiazole 2,2-dioxide], the chromatographic logD [1] is reported as 2.27 ± 0.01.
`[11CH3]NC[C@@H](O)CCN1c2ccccc2N(c2ccccc2)S1(=O)=O` [[^11C]Me@HAPTHI, (S)-1-(3-hydroxy-4-([^11C]methylamino)butyl)-3-phenyl-1,3-dihydrobenzo[c][1,2, 5]thiadiazole 2,2-dioxide] showed an unspecific filter retention [6] of 51.26 ± 0.78%.
